Experimental data taken from PubChem BioAssay AID330 (DTP/NCI, 2004).
“And” between values parts separate entries of the source, which are not always exact repeats. Identical values can stand only once. Inconclusive results and toxic doses are left out. Peptide text beside a SMILES is read from it.

Test system: P388 leukemia ip, CD2F1 mice, survival T/C
Experiment: NCI In Vivo Anticancer Drug Screen. Data for tumor model P388 Leukemia (intraperitoneal) in CD2F1 (CDF1) mice
Settings: endpoint: median survival time, higher = longer survival
Summary of the method: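 Mice carrying the transplanted tumor received test compound or vehicle. Survival was recorded in each group, and the value is the treated-group measurement divided by that of the vehicle-treated control group.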

[1] = dose: 50.0 mg/kg/injection, schedule: Q01DX005 (ip), vehicle: Klucel (hydroxypropylcellulose) (HPC)
[2] = dose: 100.0 mg/kg/injection, schedule: Q01DX005 (ip), vehicle: Klucel (hydroxypropylcellulose) (HPC)
[3] = dose: 50.0 mg/kg/injection, schedule: Q01DX005 (ip), vehicle: saline with Tween-80
[4] = dose: 100.0 mg/kg/injection, schedule: Q01DX005 (ip), vehicle: saline with Tween-80
[5] = dose: 200.0 mg/kg/injection, schedule: Q01DX005 (ip), vehicle: saline with Tween-80
[6] = dose: 50.0 mg/kg/injection, schedule: Q01DX009 (ip), vehicle: saline with Tween-80
[7] = dose: 100.0 mg/kg/injection, schedule: Q01DX009 (ip), vehicle: saline with Tween-80
[8] = dose: 200.0 mg/kg/injection, schedule: Q01DX009 (ip), vehicle: saline with Tween-80
[9] = dose: 12.5 mg/kg/injection, schedule: Q01DX009 (ip), vehicle: Klucel (hydroxypropylcellulose) (HPC)
[10] = dose: 25.0 mg/kg/injection, schedule: Q01DX009 (ip), vehicle: Klucel (hydroxypropylcellulose) (HPC)
[11] = dose: 50.0 mg/kg/injection, schedule: Q01DX009 (ip), vehicle: Klucel (hydroxypropylcellulose) (HPC)
[12] = dose: 100.0 mg/kg/injection, schedule: Q01DX009 (ip), vehicle: Klucel (hydroxypropylcellulose) (HPC)

Question: Which results are given for `C=CCC1OC(COC(=O)c2ccccc2)C(OC(=O)c2ccccc2)C1OC(=O)c1ccccc1` (stereo not drawn)?
Answer: T/C (dose: 25.0 mg/kg/injection, schedule: Q01DX005 (ip), vehicle: Klucel (hydroxypropylcellulose) (HPC)): 112 % of control; T/C (dose: 44.5 mg/kg/injection, schedule: Q01DX005 (ip), vehicle: Klucel (hydroxypropylcellulose) (HPC)): 114 % of control; T/C [1]: 117 % of control; T/C (dose: 89.0 mg/kg/injection, schedule: Q01DX005 (ip), vehicle: Klucel (hydroxypropylcellulose) (HPC)): 120 % of control; T/C [2]: 118 % of control

Question: What does the source list for `NC(=O)c1cncn1C1OCC(O)C(O)C1O` (stereo not drawn)?
Answer: T/C (dose: 60.0 mg/kg/injection, schedule: Q01DX005 (ip), vehicle: saline): 96 % of control; T/C (dose: 120.0 mg/kg/injection, schedule: Q01DX005 (ip), vehicle: saline): 94 % of control; T/C (dose: 240.0 mg/kg/injection, schedule: Q01DX005 (ip), vehicle: saline): 91 % of control

Question: For `O=C(CCl)c1cccnc1C(=O)O`, which T/C (dose: 25.0 mg/kg/injection, schedule: Q01DX009 (ip), vehicle: saline sonified) is on record?
Answer: 100 % of control

Question: And the T/C (dose: 50.0 mg/kg/injection, schedule: Q01DX009 (ip), vehicle: saline sonified)?
Answer: 100 % of control

Question: What about the T/C (dose: 100.0 mg/kg/injection, schedule: Q01DX009 (ip), vehicle: saline sonified) of the same compound?
Answer: 90 % of control

Question: `COc1cccc2c1C(=O)c1c(O)c3c(c(O)c1C2=O)CC(O)(/C(C)=N/NC(=O)CCC(=O)N/N=C(\C)C1(O)Cc2c(O)c4c(c(O)c2C(OC2CC(N(C)C)C(O)C(C)O2)C1)C(=O)c1c(OC)cccc1C4=O)CC3OC1CC(N(C)C)C(O)C(C)O1` (stereo not drawn) was tested. Which T/C (dose: 1.0 mg/kg/injection, schedule: Q01DX009 (ip), vehicle: water) did it give?
Answer: 157 % of control

Question: What about the T/C (dose: 2.0 mg/kg/injection, schedule: Q01DX009 (ip), vehicle: water) of the same compound?
Answer: 183 % of control

Question: And the T/C (dose: 3.13 mg/kg/injection, schedule: Q04DX003 (ip), vehicle: water)?
Answer: 103 % of control

Question: What about the T/C (dose: 4.0 mg/kg/injection, schedule: Q01DX009 (ip), vehicle: water) of the same compound?
Answer: 178 % of control and 203 % of control

Question: What about the T/C (dose: 6.25 mg/kg/injection, schedule: Q04DX003 (ip), vehicle: water) of the same compound?
Answer: 110 % of control

Question: And the T/C (dose: 8.0 mg/kg/injection, schedule: Q01DX009 (ip), vehicle: water)?
Answer: 160 % of control and 240 % of control

Question: What about the T/C (dose: 12.5 mg/kg/injection, schedule: Q04DX003 (ip), vehicle: water) of the same compound?
Answer: 117 % of control

Question: And the T/C (dose: 16.0 mg/kg/injection, schedule: Q01DX009 (ip), vehicle: water)?
Answer: 152 % of control

Question: What about the T/C (dose: 25.0 mg/kg/injection, schedule: Q04DX003 (ip), vehicle: water) of the same compound?
Answer: 174 % of control

Question: And the T/C (dose: 50.0 mg/kg/injection, schedule: Q04DX003 (ip), vehicle: water)?
Answer: 119 % of control

Question: What does the source list for `Cc1ccc(S(=O)(=O)Oc2ccc3oc4c(CO)ccc(NCCN(C)C)c4c(=O)c3c2)cc1`?
Answer: T/C [3]: 97 % of control; T/C [4]: 96 % of control; T/C [5]: 96 % of control

Question: With `O=C1CS(=O)(=O)C(c2ccccc2)N1N1C(=O)CS(=O)(=O)C1c1ccccc1` (stereo not drawn) as the compound, how does the T/C [3] read?
Answer: 104 % of control

Question: What about the T/C [4] of the same compound?
Answer: 104 % of control

Question: And the T/C [5]?
Answer: 92 % of control

Question: What does the source list for `CC(C)CC(NC(=O)C(N)CCCN=C(N)N)C(=O)O` (stereo not drawn) (H-Arg-Leu-OH; configuration not given here)?
Answer: T/C (dose: 50.0 mg/kg/injection, schedule: Q01DX005 (ip), vehicle: saline): 100 % of control; T/C (dose: 100.0 mg/kg/injection, schedule: Q01DX005 (ip), vehicle: saline): 100 % of control; T/C (dose: 200.0 mg/kg/injection, schedule: Q01DX005 (ip), vehicle: saline): 106 % of control

Question: With `COC1(Cl)CC1C#N` (stereo not drawn) as the compound, how does the T/C [6] read?
Answer: 117 % of control

Question: What about the T/C [7] of the same compound?
Answer: 96 % of control

Question: What about the T/C [8] of the same compound?
Answer: 105 % of control

Question: For `COc1c(OC)c(OC)c(-c2cc(=O)c3c(OC)c(OC)c(OC)c(OC)c3o2)c(OC)c1OC`, which T/C [1] is on record?
Answer: 94 % of control

Question: And the T/C [2]?
Answer: 88 % of control

Question: What about the T/C (dose: 200.0 mg/kg/injection, schedule: Q01DX005 (ip), vehicle: Klucel (hydroxypropylcellulose) (HPC)) of the same compound?
Answer: 91 % of control

Question: Which results are given for `Fc1ccc(N2C(Cl)(Cl)C23c2ccccc2-c2ccccc23)cc1`?
Answer: T/C (dose: 12.5 mg/kg/injection, schedule: Q01DX009 (ip), vehicle: saline with Tween-80): 104 % of control; T/C (dose: 25.0 mg/kg/injection, schedule: Q01DX009 (ip), vehicle: saline with Tween-80): 103 % of control; T/C [6]: 94 % of control; T/C [7]: 103 % of control; T/C [8]: 112 % of control

Question: `COc1c(OC2OC(CO)C(O)C(O)C2O)cc2occ(-c3ccc4c(c3)OCO4)c(=O)c2c1O` (stereo not drawn) was tested. Which T/C (dose: 4.0 mg/kg/injection, schedule: Q01DX005 (ip), vehicle: saline with Tween-80) did it give?
Answer: 94 % of control

Question: And the T/C (dose: 8.0 mg/kg/injection, schedule: Q01DX005 (ip), vehicle: saline with Tween-80)?
Answer: 101 % of control

Question: And the T/C (dose: 16.0 mg/kg/injection, schedule: Q01DX005 (ip), vehicle: saline with Tween-80)?
Answer: 101 % of control

Question: What about the T/C (dose: 32.0 mg/kg/injection, schedule: Q01DX005 (ip), vehicle: saline with Tween-80) of the same compound?
Answer: 95 % of control

Question: How did the T/C (dose: 100.0 mg/kg/injection, schedule: Q01DX001 (ip), vehicle: saline with Tween-80) turn out when `COc1cc(OC)c2c(=O)c3ccc([N+](=O)[O-])cc3n(C)c2c1` was run?
Answer: 100 % of control

Question: What about the T/C (dose: 200.0 mg/kg/injection, schedule: Q01DX001 (ip), vehicle: saline with Tween-80) of the same compound?
Answer: 100 % of control

Question: For `Oc1ccccc1O.[O-]c1ccccc1[O-].[O-]c1ccccc1[O-].[O]=[V+2]`, which T/C (dose: 5.0 mg/kg/injection, schedule: Q01DX009 (ip), vehicle: saline) is on record?
Answer: 100 % of control

Question: And the T/C (dose: 5.0 mg/kg/injection, schedule: Q04DX003 (ip), vehicle: saline)?
Answer: 95 % of control

Question: And the T/C (dose: 10.0 mg/kg/injection, schedule: Q01DX009 (ip), vehicle: saline)?
Answer: 90 % of control

Question: What about the T/C (dose: 10.0 mg/kg/injection, schedule: Q04DX003 (ip), vehicle: saline) of the same compound?
Answer: 118 % of control

Question: What about the T/C (dose: 20.0 mg/kg/injection, schedule: Q04DX003 (ip), vehicle: saline) of the same compound?
Answer: 100 % of control

Question: What does the source list for `O=c1[nH]cnc2cc3cn[nH]c3cc12`?
Answer: T/C [3]: 91 % of control; T/C [4]: 96 % of control; T/C [5]: 95 % of control

Question: Which results are given for `O=S1(=O)CC(Cl)(Br)C1` (tested in a mixture with another compound)?
Answer: T/C [9]: 96 % of control; T/C [10]: 93 % of control; T/C [11]: 100 % of control; T/C [12]: 96 % of control

Question: What does the source list for `O=C(O)c1ccccc1SSC(=S)N1CCOCC1`?
Answer: T/C [11]: 93 % of control; T/C [12]: 108 % of control; T/C (dose: 200.0 mg/kg/injection, schedule: Q01DX009 (ip), vehicle: Klucel (hydroxypropylcellulose) (HPC)): 118 % of control

Question: How did the T/C [6] turn out when `CN(C)Cc1nc2sc3c(c2c(=O)[nH]1)CCCC3` was run?
Answer: 106 % of control

Question: What about the T/C [7] of the same compound?
Answer: 108 % of control

Question: What about the T/C [8] of the same compound?
Answer: 103 % of control

Question: For `N#Cc1c(C(=O)NN)cc(-c2cccc3ccccc23)[nH]c1=O`, which T/C [3] is on record?
Answer: 107 % of control

Question: And the T/C [4]?
Answer: 103 % of control

Question: Which results are given for `Cc1ccc2c(c1)sc1nnc(S(C)(=O)=O)n12`?
Answer: T/C [9]: 118 % of control; T/C [10]: 110 % of control; T/C [11]: 102 % of control and 118 % of control; T/C [12]: 111 % of control

Question: For `N#Cc1ccc(OC(=O)Nc2c(Cl)cc(Cl)cc2Cl)cc1`, which T/C (dose: 60.0 mg/kg/injection, schedule: Q01DX005 (ip), vehicle: saline with Tween-80) is on record?
Answer: 100 % of control

Question: And the T/C (dose: 120.0 mg/kg/injection, schedule: Q01DX005 (ip), vehicle: saline with Tween-80)?
Answer: 92 % of control

Question: Which results are given for `COc1ccc(C2OC(=O)CN2C(=O)c2ccccc2)cc1` (stereo not drawn)?
Answer: T/C [3]: 107 % of control; T/C [4]: 95 % of control; T/C [5]: 90 % of control

Question: What does the source list for `CC1CC(C)(C)N=C(Cc2ccccc2)O1` (stereo not drawn)?
Answer: T/C [6]: 100 % of control; T/C [7]: 101 % of control; T/C [8]: 89 % of control

Question: How did the T/C (dose: 0.25 mg/kg/injection, schedule: Q01DX009 (ip), vehicle: Klucel (hydroxypropylcellulose) (HPC)) turn out when `COc1cc2c(c(OC)c1OC)-c1ccc(OC)c(=O)cc1[C@@H](NC(=O)c1ccc([N+](=O)[O-])cc1)CC2` was run?
Answer: 109 % of control and 115 % of control

Question: What about the T/C (dose: 0.5 mg/kg/injection, schedule: Q01DX009 (ip), vehicle: Klucel (hydroxypropylcellulose) (HPC)) of the same compound?
Answer: 114 % of control

Question: And the T/C (dose: 0.78 mg/kg/injection, schedule: Q01DX009 (ip), vehicle: Klucel (hydroxypropylcellulose) (HPC))?
Answer: 108 % of control

Question: What about the T/C (dose: 1.0 mg/kg/injection, schedule: Q01DX009 (ip), vehicle: Klucel (hydroxypropylcellulose) (HPC)) of the same compound?
Answer: 114 % of control and 124 % of control

Question: What about the T/C (dose: 1.56 mg/kg/injection, schedule: Q01DX009 (ip), vehicle: Klucel (hydroxypropylcellulose) (HPC)) of the same compound?
Answer: 112 % of control

Question: And the T/C (dose: 2.0 mg/kg/injection, schedule: Q01DX009 (ip), vehicle: Klucel (hydroxypropylcellulose) (HPC))?
Answer: 124 % of control

Question: And the T/C (dose: 3.12 mg/kg/injection, schedule: Q01DX009 (ip), vehicle: Klucel (hydroxypropylcellulose) (HPC))?
Answer: 160 % of control

Question: And the T/C (dose: 4.0 mg/kg/injection, schedule: Q01DX009 (ip), vehicle: Klucel (hydroxypropylcellulose) (HPC))?
Answer: 166 % of control

Question: What about the T/C (dose: 6.25 mg/kg/injection, schedule: Q01DX009 (ip), vehicle: Klucel (hydroxypropylcellulose) (HPC)) of the same compound?
Answer: 198 % of control
